Test results reported in US9944668B2, “Manganese-based magnetic resonance contrast agents” (The General Hospital Corporation, priority 2013, dated 2018).

What was measured:
Assay type in all cases: physicochemical
[1] = T1 relaxivity (r1) measurement at 1.4 T, 37° C., TRIS buffer pH 7.4; details: for r1 (relaxivity): pH 7.4, 37° C., 1.4 Tesla, TRIS buffer
Procedure: (§1) Liquid chromatography-electrospray mass spectrometry (LC-MS) was performed using an Agilent 1100 Series apparatus with an LC/MSD trap and Daly conversion dynode detector with UV detection at 220, 254 and 280 nm. The methods used on this system are as follows: (a) Luna C18 column (100×2 mm); eluent A: H2O/0.1% formic acid, B: MeCN/0.1% formic acid; gradient: 5% B to 95% B over 9 minutes; flow rate 0.8 mL/min (used for characterization of organic compounds), and (b) Kromasil C18 column (250×4.6 mm); eluent C: 95% MeCN/5% 10 mM ammonium acetate, D: 10 mM ammonium acetate; gradient 5% C to 8% C over 14 minutes; flow rate 0.8 ml/min (used for characterization of manganese complexes). Reversed-phase semipreparative purification was performed on a Rainin Dynamax HPLC system with UV detection at 254 nm using a Polaris C18 column. The method used for purification is as follows: The mobile phase A was 50 mM ammonium acetate buffer, pH 6.5 and mobile phase B was a mixture of 5% 50 mM ammonium acetate buffer, pH 6.5/95% MeCN. Starting from 5% B, the fraction of B increased to 8% over 23 minutes. The column was washed with 100% B for 2 minutes and then ramped to 5% B. The system was re-equilibrated at 5% B for 3 minutes. Relaxivity measurements were performed on a Bruker mq60 Minispec at 1.4 T and 37° C. Manganese concentrations were determined using an Agilent 7500a ICP-MS system. All samples were diluted with 0.1% Triton X-100 in 5% nitric acid containing 20 ppb of Lu (as internal standard). The ratio of Mn (54.94)/Lu(174.97) was used to quantify the manganese concentration. A linear calibration curve ranging from 0.1 ppb to 200 ppb was generated daily for the quantification. UV-Vis spectra were recorded on a SpectraMax M2 spectrophotometer using quartz cuvette with a 1 cm path length. Cyclic voltammetry of Mn^IIHBET, Mn^IIEDTA and Mn^IIIHBET was recorded using a Nuvant EZstat pro potentiostat in TRIS buffer (pH=7.4), containing 0.5M KNO3 as supporting electrolyte, at 100 mVs-1 scan rate. Glassy carbon was used as the working electrode, Ag/AgCl served as the reference electrode and Pt wire was used as the auxiliary electrode. The K4FeCN6/K3FeCN6 couple was used as the internal standard.
T1 was measured with an inversion recovery pulse sequence taking 10 inversion times. Relaxivity was determined from the slope of a plot of 1/T1 vs. concentration of in TRIS buffer, pH=7.4 at 37° C. The concentration of manganese in each stock solution was determined using ICP-MS.

[2] = Cyclic voltammetry of manganese complexes (Mn(III)/Mn(II) redox couple); details: for Half-cell potential: pH 7.4, vs. normal hydrogen electrode (NHE)
Procedure: as §1

[3] = T1 relaxivity measurement by MR imaging at 4.7 T; details: room temperature, pH 7.4 TRIS buffer
Procedure: MR imaging was performed using a Bruker Biospec 4.7 T system. Three samples (˜500 μL) were placed in a homemade sample holder and imaged using a volume coil. Acquisition matrix=64×256 for 0.234×0.312 mm^2 in-plane resolution; slice thickness=5 mm. T1-weighted images were obtained with a fast low angle shot (FLASH) gradient echo sequence: TR/TE/FA=20/5.44/40° with 8 averages. T1 was determined using a 2D rapid acquisition refocused echo (RARE) inversion recovery sequence: TR=3200 ms, TE=9.7 ms. Inversion times (TI): 5, 45, 85, 165, 325, 645, 1285, 1925 and 3205 ms. T1 was obtained from a nonlinear least square fit of the signal intensity (SI(t)) vs. TI curve where T1, SI(0) and a are adjustable parameters, equation S2. SI(t)=SI(0)[1−α,e^TI/T1] (eq. S2)

[4] = Kinetics of reduction of Mn^III-HBET by glutathione; details: 37° C., pH 7.4; first-order in both [GSH] and [Mn^III-HBET]
Procedure: This series of kinetic experiments were conducted at 37° C. (pH 7.4) to determine the empirical rate law for the reduction of Mn^III-HBET by glutathione. […] This feature was used to monitor the reduction of […] over time. Initial reaction rates were measured at a three different glutathione concentrations (5 mM, 10 mM and 20 mM). Additionally, for each glutathione concentration, the reaction was performed at four different initial concentrations of Mn^III-HBET (0.3 mM, 0.4 mM, 0.5 mM and 0.6 mM). By using a large excess of glutathione in these experiments, we found the reaction behaved pseudo first-order with respect to the […] complex as expressed in equation S1. [Mn^IIIHBET]t=[Mn^IIIHBET]o·e^−k^obs^·t (eq. S1)
Here, the observed rate constant (kobs) is simply the product of the actual rate constant (k) and [GSH], t is time, and the subscripts ‘t’ and ‘o’ refer to the concentration at time ‘t’ or the initial concentration, respectively. […] In this way, the slope of each line is equal to −k·[GSH] and the intercept is In[MnIII-HBET]o. Based on these experiments, we determined that the reaction was first-order in both [GSH] and [Mn^III-HBET] with an overall second-order rate constant of (3.8±0.3)×10^−1M^−1s^−1.

[5] = Relaxivity (r1) at different field strengths in HEPES buffer; details: 37° C., pH 7.4 HEPES buffer
Procedure: The relaxivities of the compounds for Formulas (XI) and (XII) were determined at different field strengths at 37° C. in pH 7.4 HEPES buffer. The relaxivity was obtained from the slope of a plot of 1/T1 vs. [Mn] for different Mn concentrations. Since Formula (XI) contains 6 Mn per molecule, the ionic (per Mn) and molecular (per molecule) relaxivities are given below.

With `O=C([O-])CN(CC(=O)[O-])C1CCCCC1N(CC(=O)[O-])Cc1ccccc1[O-].[Mn+2].[Na+].[Na+]` (racemic) [Compound 20, Na2[Mn^IIcycHBET]] as the compound, how does the “r1 (relaxivity)” value [1] read?
The value was 3.26 mM⁻¹ s⁻¹.

What does the source list for `O=C([O-])CN(CCN(CC(=O)[O-])Cc1ccccc1[O-])CC(=O)[O-].[Mn+2].[Na+].[Na+]` [Compound 4, Na2[Mn^IIHBET]]?
Half-cell potential [2]: 379 mV; r1 (relaxivity) [1]: 2.76 mM⁻¹ s⁻¹

For `O=C([O-])CN(CCN(CC(=O)[O-])Cc1ccccc1[O-])CC(=O)[O-].[Mn+3].[Na+]` [Compound 5, Na[Mn^IIIHBET]], which “fold higher relaxivity of reduced form vs oxidized form” value [3] is on record?
The value was 3.3 fold.

And the “r1 (relaxivity)” value [1]?
The value was 1.05 mM⁻¹ s⁻¹.

And the “overall second-order rate constant of reduction by glutathione” value [4]?
Its value is “(3.8±0.3)×10^−1 M^−1s^−1”.

What does the source list for `COc1ccc([O-])c(CN(CCN(CC(=O)[O-])CC(=O)[O-])CC(=O)[O-])c1.[Mn+2].[Na+].[Na+]` [Compound 9, Na2[Mn^IIHBET-OMe]]?
Half-cell potential [2]: 344 mV; r1 (relaxivity) [1]: 3.11 mM⁻¹ s⁻¹

For `O=C([O-])CN(CCN(CC(=O)[O-])Cc1cc([N+](=O)[O-])ccc1[O-])CC(=O)[O-].[Mn+2].[Na+].[Na+]` [Compound 13, Na2[Mn^IIHBET-NO2]], which “r1 (relaxivity)” value [1] is on record?
Its value is 2.28 mM⁻¹ s⁻¹.

Which Half-cell potential [2] does the source give for `O=C([O-])CN(CCN(CC(=O)[O-])Cc1cc([N+](=O)[O-])ccc1[O-])CC(=O)[O-].[Mn+3].[Na+]` [Compound 14, Na[Mn^IIIHBET-NO2]] here?
Its Half-cell potential is 476 mV.

What about the “r1 (relaxivity)” value [1] of the same compound?
The value was 0.34 mM⁻¹ s⁻¹.

For `O=C([O-])CN(CC(=O)[O-])C1CCCCC1N(CC(=O)[O-])Cc1ccccc1[O-].[Mn+3].[Na+]` (stereo not shown) [Compound 21, Na[Mn^IIIcycHBET]], which Half-cell potential [2] is on record?
The Half-cell potential was 365 mV.

What about the “r1 (relaxivity)” value [1] of the same compound?
Its value is 1.56 mM⁻¹ s⁻¹.

Which “r1 (relaxivity)” value [1] does the source give for `O=C([O-])CN(CC(=O)[O-])C1CCCCC1N(CC(=O)[O-])Cc1cc([N+](=O)[O-])ccc1[O-].[Mn+2].[Na+].[Na+]` (stereo not shown) [Compound 30, Na2[Mn^IIcycHBET-NO2)]] here?
The value was 2.30 mM⁻¹ s⁻¹.

Which Half-cell potential [2] does the source give for `O=C([O-])CN(CC(=O)[O-])C1CCCCC1N(CC(=O)[O-])Cc1cc([N+](=O)[O-])ccc1[O-].[Mn+3].[Na+]` (stereo not shown) [Compound 31, Na[Mn^IIIcycHBET-NO2]] here?
Its Half-cell potential is 488 mV.

Which “half-cell potential (Mn^II/Mn^III)” value ([2]; TRIS buffer pH 7.4, vs. K4Fe(CN)6/K3Fe(CN)6) does the source give for `O=C([O-])CN(CCN(CC(=O)[O-])Cc1ccccc1[O-])Cc1ccccc1[O-].[Mn+3]` [Mn^III-HBED, reference compound] here?
The value was 0.016 V.

For Mn6[N3P3-(TyOH-EDTA)6] [(XI)], which “Relaxivity r1 (per Mn)” value ([5]; 0.47T) is on record?
Its value is 9.07 mM⁻¹ s⁻¹.

And the “Relaxivity r1 per molecule” value ([5]; 0.47T)?
Its value is 54.4 mM⁻¹ s⁻¹.

What about the “Relaxivity r1 (per Mn)” value ([5]; 1.4T) of the same compound?
Its value is 9.28 mM⁻¹ s⁻¹.

And the “Relaxivity r1 per molecule” value ([5]; 1.4T)?
The value was 55.7 mM⁻¹ s⁻¹.

And the “Relaxivity r1 (per Mn)” value ([5]; 4.7T)?
Its value is 6.54 mM⁻¹ s⁻¹.

And the “Relaxivity r1 per molecule” value ([5]; 4.7T)?
Its value is 39.2 mM⁻¹ s⁻¹.

What about the “Relaxivity r1 (per Mn)” value ([5]; 9.4T) of the same compound?
The value was 4.94 mM⁻¹ s⁻¹.

What about the “Relaxivity r1 per molecule” value ([5]; 9.4T) of the same compound?
Its value is 29.6 mM⁻¹ s⁻¹.

And the “Relaxivity r1 (per Mn)” value ([5]; 11.7T)?
The value was 3.57 mM⁻¹ s⁻¹.

And the “Relaxivity r1 per molecule” value ([5]; 11.7T)?
The value was 21.4 mM⁻¹ s⁻¹.

Which results are given for Na[Mn(TyOH-EDTA)] [(XII)]?
Relaxivity r1 (per Mn) ([5]; 0.47T): 3.60 mM⁻¹ s⁻¹; Relaxivity r1 (per Mn) ([5]; 1.4T): 2.80 mM⁻¹ s⁻¹; Relaxivity r1 (per Mn) ([5]; 9.4T): 3.65 mM⁻¹ s⁻¹; Relaxivity r1 (per Mn) ([5]; 11.7T): 3.05 mM⁻¹ s⁻¹

For [Mn(CyP3A)] [(IX)], which “Relaxivity r1” value ([1]; 1.41T, 37° C., pH 7.4 Tris buffer) is on record?
Its value is 2.50 mM⁻¹ s⁻¹.
